Experimental data as given in patent US11033544B2, “Low-dose triple combination formulation” (THE GEORGE INSTITUTE FOR GLOBAL HEALTH, priority 2019, dated 2021).
Entries after “also recorded” stand apart in the source; their conditions may differ.

Assays:
Format in all cases: in vivo
[1] = system: Zucker Diabetic Fatty (ZDF) rats; test: Whole blood glucose in the Zucker rat model of diet induced diabetes, 21 days of treatment
Text: (§1) Study Design: • Zucker rat model of diet induced diabetes (Zucker Diabetic Fatty Rats) • Parallel randomized study • 10 animals in each of 4 treatment groups • 21 days of treatment
(§2) Main Study Outcomes: • Glucose (measured at multiple time points before and during treatment) • HbA1c (before and at the end of the treatment period) • Insulin (before and at the end of the treatment period) • Creatinine (before and at the end of the treatment period)
(§3) Ten Zucker Diabetic Fatty (ZDF) rats were randomly allocated to each of the four different treatment groups (Table 6). Whole blood glucose measurements were made from 4 days before dosing, then daily until for 8 days, then at reduced frequency. Measurements of HbA1c and creatinine were made the day prior to dosing, then at days 9 and 21. Insulin measurements were made the day prior to dosing then on day 20. A clinical chemistry sample from one animal in the vehicle group on day 9 was not available so there is a missing measurement for creatinine and HbA1c on that day
(§4) Whole blood glucose, HbA1c and Creatinine were each analyzed using a linear mixed mode (proc mixed in SAS/STAT 14.2). For WBC, unstructured, autoregressive, exchangeable and Toeplitz correlation structures for repeated measurements across the study were compared using Akaike Information Criterion and Bayesian Information Criterion. The Toeplitz correlation structure was selected as the best fitting structure. For HbA1c and Creatinine an exchangeable structure was used as there were only two measurements. Denominator degrees of freedom were calculated using the between-within subject method. The model included coefficients for baseline measurement (the closest measurement preceding dosing), type of drug treatment, time and an interaction between drug treatment and time. Marginal means (with 95% confidence intervals) for the measurement at each period for each drug were estimated, and an overall marginal mean (with 95% confidence interval) for measurements across time was estimated using weights that reflect the differing amounts of time in each measurement period (assuming each measurement represented all time since the preceding measurement). A likelihood ratio test of overall differences between treatment was initially used, if significant (p<0.05) then we tested for differences between each combination of treatments.
(§5) To test for robustness of the linear mixed model and ANCOVA models a bootstrapped 95% CI (percentile method) for the weighted marginal mean of measurements across the entire study period or single outcome measurement using 2000 replicates was estimated. The bootstrap sampling was done on individual animal (using complete measurements), with stratification by treatment type.

[2] = system: Zucker Diabetic Fatty (ZDF) rats; test: HbA1c in the Zucker rat model of diet induced diabetes, 21 days of treatment
Text: as §1, §2, §3, §4, §5

[3] = system: Zucker Diabetic Fatty (ZDF) rats; test: Plasma insulin in the Zucker rat model of diet induced diabetes, 21 days of treatment
Text: as §1, §2, §3
For Insulin, a baseline measure and a measurement at day 20 was available, so the ANCOVA approach (linear regression with the baseline value as a covariate) was used to test for differences in this measurement between treatments. The interaction between baseline value and treatment was tested but there was no evidence of an interaction, therefore the main effects were retained.
as §5

[4] = system: Zucker Diabetic Fatty (ZDF) rats; test: Serum creatinine in the Zucker rat model of diet induced diabetes, 21 days of treatment
Text: as §1, §2, §3, §4, §5

[5] = whole study period, bootstrapped 95% CI, 2000 replicates

## CN(C)C(=N)N=C(N)N [Composition 1K-MET, Metformin]
[1]; 21 days of treatment
  WBG relative to the control group: essentially no difference
[1]; days 1-21, difference = treatment minus vehicle
  Whole blood glucose, pairwise comparison Vehicle vs treatment, Estimate (95% CI): 24.4 (−5.2-53.9) mg/dL
[1]; non-fasting whole blood glucose, time-weighted marginal mean over days 1-21 post-dosing, linear mixed model
  Overall level in WBG after dosing, Estimate (95% CI): 442.7 (421.8-463.5) mg/dL
[1]; [5]
  Whole blood glucose, bootstrap median and confidence interval: 443.4 (419.8-465.0) mg/dL
[2]; 21 days of treatment
  HbA1c relative to the control group: essentially no difference
[2]; days 9 and 21, difference = treatment minus vehicle
  HbA1c, pairwise comparison Vehicle vs treatment, Estimate (95% CI): −0.35 (−0.68-−0.01) %
[2]; measurements at days 9 and 21, marginal mean, linear mixed model
  HbA1c, overall level after dosing, estimate (95% CI): 6.52 (6.29-6.75) %
[2]; [5]
  HbA1c, bootstrap median and confidence interval: 6.53 (6.24-6.82) %
[3]; day 20
  Insulin levels relative to the control group / vehicle: no evidence of a difference; also recorded: essentially no difference
[3]; day 20, ANCOVA with baseline as covariate
  Insulin, Overall level in WBG after dosing, Estimate (95% CI): 3879 (2757-5001) pg/mL
[3]; day 20, bootstrapped 95% CI, 2000 replicates
  Insulin, bootstrap median and confidence interval: 3867 (2914-4874) pg/m
[3]; day 20, difference = treatment minus vehicle
  Insulin, pairwise comparison Vehicle vs treatment, Estimate (95% CI): 932 (−660-2524) pg/mL
[4]; 21 days of treatment
  Creatinine relative to the control group: essentially no difference
[4]; serum, days 9 and 21, difference = treatment minus vehicle
  Creatinine, pairwise comparison Vehicle vs treatment, Estimate (95% CI): 0.01 (−0.01-0.03) mg/dL
[4]; serum, days 9 and 21, marginal mean, linear mixed model
  Creatinine, Overall level in WBG after dosing, Estimate (95% CI): 0.79 (0.77-0.80) mg/dL
[4]; [5]
  Creatinine, bootstrap median and confidence interval: 0.79 (0.77-0.80) mg/dL
